Experimental data published in PMC2713098 (Nuclear medicine and biology, 2009).
Entries after “also recorded” stand apart in the source; their conditions may differ. Read-outs that look alike come from different tables or passages of the source. Blank lines part the entries; values can stand above or below the molecule they belong to.

What was measured:
rat A3AR [1] = target: T1, rat A3AR (Rattus norvegicus, UniProt P28647); experiment: Competitive radioligand binding at rat A3AR in CHO cell membranes using [76Br]4; conditions: for potency in binding to the rat A3AR: Figures 1A and 1B, [76Br]4 or [76Br]6 as radioligand; for Ki: read-out: Rat Ki, CHO cell membranes, radioligand [76Br]4 0.5 nM, 25°C 60 min
T1 sequence (P28647 1-320): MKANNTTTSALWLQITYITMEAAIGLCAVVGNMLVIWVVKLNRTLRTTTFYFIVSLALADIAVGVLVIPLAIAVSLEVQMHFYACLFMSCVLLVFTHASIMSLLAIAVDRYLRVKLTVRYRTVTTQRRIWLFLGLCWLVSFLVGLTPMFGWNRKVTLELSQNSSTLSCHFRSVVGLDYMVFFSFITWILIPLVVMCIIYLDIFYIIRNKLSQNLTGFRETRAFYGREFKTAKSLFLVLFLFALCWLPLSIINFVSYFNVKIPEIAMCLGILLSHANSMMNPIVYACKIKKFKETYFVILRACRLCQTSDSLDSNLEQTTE

human A3AR [2] = target: T2, human A3AR (Homo sapiens, UniProt P0DMS8); conditions: read-out: Human Ki; CHO cell membranes, radioligand [76Br]MRS5147 6
T2 sequence (P0DMS8 1-318): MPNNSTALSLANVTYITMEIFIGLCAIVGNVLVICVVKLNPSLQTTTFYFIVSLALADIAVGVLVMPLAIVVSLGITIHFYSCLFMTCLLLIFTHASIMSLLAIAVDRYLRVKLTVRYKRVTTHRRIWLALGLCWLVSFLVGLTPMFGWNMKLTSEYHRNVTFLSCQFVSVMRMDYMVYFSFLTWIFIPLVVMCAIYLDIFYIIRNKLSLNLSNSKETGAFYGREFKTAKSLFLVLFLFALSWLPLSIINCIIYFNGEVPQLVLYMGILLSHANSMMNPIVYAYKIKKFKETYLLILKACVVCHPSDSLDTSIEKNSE

rat A3AR [3] = target: T1, rat A3AR
human A3AR [4] = target: T2, human A3AR; conditions: for potency at human versus rat A3AR: Figures 1A and 1B; for Ki: read-out: Human Ki, CHO cell membranes, radioligand [76Br]4 0.5 nM, 25°C 60 min
[5] = In vivo biodistribution study in rats; design: species or system rat; conditions: for uptake in testes over time: i.v., 15, 60 and 120 min post-injection
human A3AR [6] = target: T2, human A3AR; conditions: cited from earlier work
[7] = In vitro metabolism in human hepatocytes; format: in vitro ADME; conditions: 20 μg/mL, 37°C, up to 4 hours; only very small amounts of metabolites by LC/MS
A3AR = experiment: In vitro tissue binding; conditions: rat whole brain and testes slices, with and without inhibitors, preliminary
[8] = In vitro metabolism in rat hepatocytes; format: in vitro ADME; conditions: 20 μg/mL, 37°C, up to 4 hours; only very small amounts of metabolites by LC/MS
[9] = read-out: Rat Ki, CHO cell membranes, radioligand [76Br]MRS5147 6

- Ki (rat A3AR [1]): 0.9 ± 0.07 nM
- potency at human versus rat A3AR (human A3AR [4]): equally potent
- Ki (human A3AR [4]): 0.63 ± 0.05 nM
SMILES: CNC(=O)[C@]12C[C@@H]1[C@@H](n1cnc3c(NCc4cccc(Br)c4)nc(Cl)nc31)[C@H](O)[C@@H]2O [compound 4, (1′R,2′R,3′S,4′R,5′S)-4-{2-chloro-6-[(3-bromophenylmethyl)amino]purin-9-yl}-1-(methylaminocarbonyl)bicyclo[3.1.0]hexane-2,3-diol]
- selectivity in comparison to other AR subtypes (human A3AR [6]): high selectivity
- Ki (human A3AR [6]; read-out: Ki value at the human A3AR, shown previously, listed as 4 (MRS3581)): 0.38 nM

- uptake in testes over time ([5]; rat): increasing uptake in testes
- Ki (rat A3AR [3]): 5.2 ± 1.8 nM
SMILES: O[C@@H]1[C@H](O)[C@@H]2C[C@@H]2[C@H]1n1cnc2c(NCc3cccc(Br)c3)nc(Cl)nc21 [compound 6, (1R,2R,3S,4R,5S)-4-(6-(3-bromobenzylamino)-2-chloro-9H-purin-9-yl)bicyclo[3.1.0]hexane-2,3-diol]

More lines, now with the values behind:

SMILES: CCCOC(=O)c1c(-c2ccccc2)nc(CC)c(C(=O)SCC)c1CCC [MRS1523, 3-propyl-6-ethyl-5-[(ethylthio)carbonyl]-2-phenyl-4-propyl-3-pyridine carboxylate, reference compound]
- potency in binding to the rat A3AR (rat A3AR [1]): moderately potent
- Ki (rat A3AR [1]): 939 ± 98 nM
- Ki (human A3AR [2]): 120 ± 17 nM
- Ki (rat A3AR [3]; [9]): 2830 ± 520 nM
- potency at human versus rat A3AR (human A3AR [4]): more potent at the human A3AR
- Ki (human A3AR [4]): 125 ± 13 nM

SMILES: O[C@@H]1[C@H](O)[C@@H]2C[C@@H]2[C@H]1n1cnc2c(NCc3cccc([76Br])c3)nc(Cl)nc21 [[^76Br]6, [^76Br](1R,2R,3S,4R,5S)-4-(6-(3-bromobenzylamino)-2-chloro-9H-purin-9-yl)bicyclo[3.1.0]hexane-2,3-diol]
- uptake in testes over time ([5]; rat): continued to increase with time; also recorded: statistically increased relative to the 15 min time point
- tissue uptake relative to agonist [76Br]4 ([5]; rat, i.v., %ID/g): an order of magnitude lower

SMILES: O=C(Cc1ccccc1)Nc1nc2ccc(Cl)cc2c2nc(-c3ccco3)nn12 [MRS1220, N-[9-chloro-2-(2-furanyl)[1,2, 4]triazolo[1,5-c]quinazolin-5-yl]benzeneacetamide]
- potency in binding to the rat A3AR (rat A3AR [1]): ineffective
- Ki (rat A3AR [1]): > 10000 nM
- Ki (rat A3AR [3]; [9]): > 10000 nM

SMILES: CNC(=O)[C@]12C[C@@H]1[C@@H](n1cnc3c(NCc4cccc([76Br])c4)nc(Cl)nc31)[C@H](O)[C@@H]2O [[^76Br]4, [^76Br](1′R,2′R,3′S,4′R,5′S)-4-{2-chloro-6-[(3-bromophenylmethyl)amino]purin-9-yl}-1-(methylaminocarbonyl)bicyclo[3.1.0]hexane-2,3-diol]
- metabolic stability in human hepatocytes [7]: very stable
- organs of primary uptake ([5]; i.v., Sprague-Dawley rats, 15-120 min): liver and kidneys
- specific uptake of radioligand in tissue slices (A3AR): fail to show any specific uptake
- metabolic stability in rat hepatocytes [8]: very stable
